The test deals with Mast/stem cell growth factor receptor Kit (Homo sapiens, UniProt P10721). Briefly: Magnesium chloride (MgCl2), Manganese(II) chloride (MnCl2), Bovine serum albumin (BSA) and dimethylsulfoxide (DMSO) were purchased from Sigma-Aldrich.
Mast/stem cell growth factor receptor Kit, sequence (P10721 whole entry): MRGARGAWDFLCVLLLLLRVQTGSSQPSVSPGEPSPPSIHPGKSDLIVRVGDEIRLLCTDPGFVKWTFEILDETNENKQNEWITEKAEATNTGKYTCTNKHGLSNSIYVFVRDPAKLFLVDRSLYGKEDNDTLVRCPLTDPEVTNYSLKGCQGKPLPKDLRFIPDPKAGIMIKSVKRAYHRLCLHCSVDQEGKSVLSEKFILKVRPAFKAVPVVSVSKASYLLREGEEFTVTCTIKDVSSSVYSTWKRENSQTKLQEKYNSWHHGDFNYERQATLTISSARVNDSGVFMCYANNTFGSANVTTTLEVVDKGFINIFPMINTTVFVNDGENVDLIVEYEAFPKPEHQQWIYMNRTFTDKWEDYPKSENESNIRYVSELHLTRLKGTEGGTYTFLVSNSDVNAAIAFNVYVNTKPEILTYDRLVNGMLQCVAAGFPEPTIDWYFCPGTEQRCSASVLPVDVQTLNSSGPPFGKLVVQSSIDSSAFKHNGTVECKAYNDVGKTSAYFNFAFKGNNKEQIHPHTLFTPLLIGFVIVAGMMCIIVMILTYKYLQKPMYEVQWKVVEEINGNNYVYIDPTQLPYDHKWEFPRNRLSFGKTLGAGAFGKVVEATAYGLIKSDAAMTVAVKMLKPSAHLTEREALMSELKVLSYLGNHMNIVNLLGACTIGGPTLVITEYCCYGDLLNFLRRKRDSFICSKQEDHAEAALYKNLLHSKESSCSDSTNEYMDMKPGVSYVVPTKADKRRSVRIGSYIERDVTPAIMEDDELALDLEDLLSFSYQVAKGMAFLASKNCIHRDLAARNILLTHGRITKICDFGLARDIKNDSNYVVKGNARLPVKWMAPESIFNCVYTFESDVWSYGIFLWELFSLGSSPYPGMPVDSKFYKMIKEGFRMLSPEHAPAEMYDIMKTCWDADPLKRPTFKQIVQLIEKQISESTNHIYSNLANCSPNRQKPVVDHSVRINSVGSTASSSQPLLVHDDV

As a reminder, the IC50 is the midpoint of a concentration-inhibition curve. A low value points to inhibition by little substance. Take `Cc1ccc2c(c1-c1ccc3nc(NC(=O)[C@@H]4C[C@@H]4F)sc3c1)CCN2`: the IC50 is above 10 µM.
